Source: patent publication US10870678B2, “Chiral peptides” (ARCUATE THERAPEUTICS, INC., priority 2016, dated 2020)
Like-named read-outs stand apart in the source and are kept apart here.

Test system: HepG2 human liver cancer cell line
Assay: Functional Mitochondrial Toxicity Assay, XFe96 Seahorse (HepG2)
Type: cell-based
Protocol: The present Examples interrogate the two major energy producing pathways in the cell, mitochondrial respiration and glycolysis. HepG2 human liver cancer cell lines were dosed with test compounds and in real time the extracellular oxygen levels and pH were measured using the XFe96 flux analyser (Seahorse Biosciences). XFe Technology uses solid-state sensors to simultaneously measure both oxygen consumption rate (OCR) and extracellular acidification rate (ECAR) to determine effects on oxidative phosphorylation (OXPHOS) and glycolysis simultaneously. The cells were then subjected to sequential exposure to various inhibitors of mitochondrial functional to assess cellular metabolism.
A positive mitochondrial active compound is determined when there is a change in OCR or ECAR in the absence of cytotoxicity. Cytotoxicity was determined when both oxidative phosphorylation (OCR) and glycolysis (ECAR) were inhibited.
OCR is a measurement of oxygen content in extracellular media. Changes in OCR indicate effects on mitochondrial function, and can be bi-directional. A decrease is due to an inhibition of mitochondrial respiration, whilst an increase may indicate an uncoupler, in which respiration is not linked to energy production.
ECAR is the measurement of extracellular proton concentration (pH). An increase in signal means an increase in rate in number of pH ions (Thus decreasing pH value), and seen as an increase in glycolysis. Expressed as a fraction of basal control (rate prior to addition of compound).
Reverse capacity is the measured ability of cells to respond to an increase in energy demand, a reduction indicates mitochondrial dysfunction.
The Mitochondrial Stress Test is a series of sequential additions of compounds to the cells to assess a bioenergetics profile, and effects of test compounds on parameters such as proton leak and research capacity. This was used to assist in understanding potential mechanisms of mitochondrial toxicity. For example, it involves the addition of the follow compounds in this order:
Oligomycin is a known inhibitor of ATP synthase, and prevents the formation of ATP. This provides a measurement of the amount of oxygen consumption related to ATP production and ATP turnover. The addition of Oligomycin results in a decrease in OCR under normal conditions, and residual OCR is related to the natural proton leak.
Carbonyl cyanide 4-(trifluoromethoxy)phenylhydrazine (FCCP) is a protonphore, and is a known uncoupler of oxygen consumption from ATP production. This allows the maximum achievable transfer of electrons and oxygen consumption rate, and provides a measurement of reserve capacity.
Rotenone and antimycin A are known inhibitors of complex I and III of the electron transport chain, respectively. This inhibits electron transport completely, and any residual oxygen consumption is due to non-mitochondrial activity via oxygen requiring enzymes.

[1] = HepG2, read-out: Reserve Capacity AC50

Row | Molecule | Potential Mechanism (HepG2) | Reserve Capacity MEC (HepG2) | Reserve Capacity ↑↓ (HepG2) | AC50 (HepG2, read-out: ECAR AC50) | AC50 (HepG2, read-out: OCR AC50) | AC50 [1] | further results
1 | C=C(C)[C@H]1Cc2c(ccc3c2O[C@@H]2COc4cc(OC)c(OC)cc4[C@@H]2C3=O)O1 [Rotenone, reference compound] | ETC | <0.003 µM | ↓ |  |  |  | ECAR MEC (HepG2): 0.00325 µM; ECAR ↑↓ (HepG2): ↑; OCR MEC (HepG2): <0.003 µM; OCR ↑↓ (HepG2): ↓; AC50 (Homo sapiens, HepG2, read-out: ECAR AC50): 0.496 µM; AC50 (Homo sapiens, HepG2, read-out: OCR AC50): 0.0138 µM; AC50 (Homo sapiens, HepG2, read-out: Reserve Capacity AC50): 0.00349 µM
2 | (D-Arg)(L-Dmt)(L-Lys)(L-Tyr)-NH2 [Peptide I-9] | No effect |  |  | > 100 µM | > 100 µM | > 100 µM | 
3 | (D-Arg)(L-Dmt)(L-Orn)(L-Phe)-NH2 [Peptide I-2] | No effect |  |  | > 100 µM | > 100 µM | > 100 µM | 
4 | (D-Arg)(L-Dmt)(L-Orn)(L-Tyr)-NH2 [Peptide I-10] | No effect |  |  | > 100 µM | > 100 µM | > 100 µM | 
5 | (D-Arg)(L-Leu)(L-Lys)(L-Phe)-NH2 [Peptide I-21] | Other | 62.5 µM | ↑ | > 100 µM | > 100 µM | > 100 µM | 
6 | (D-Arg)(L-Leu)(L-Orn)(L-Leu)-NH2 [Peptide I-24] | Other | 33.8 µM | ↑ | > 100 µM | > 100 µM | > 100 µM | 
7 | (D-Arg)(L-Leu)(L-Orn)(L-Phe)-NH2 [Peptide I-23] | Other | 65.9 µM | ↑ | > 100 µM | > 100 µM | > 100 µM | 
8 | (D-Arg)(L-Phe)(L-Lys)(L-Phe)-NH2 [Peptide I-22] | No effect | 100 µM | ↑ | > 100 µM | > 100 µM | > 100 µM | 
9 | (D-Arg)(L-Tyr)(L-Orn)(L-Phe)-NH2 [Peptide I-3] | Other |  | ↑ | > 100 µM | > 100 µM | > 100 µM | Reserve Capacity MEC (HepG2, listed as I-3 (1)): 48.5 µM; Reserve Capacity MEC (HepG2, listed as I-3 (2)): 85.3 µM
10 | (D-Leu)(D-Orn)(D-Leu)(L-Orn)-NH2 [Peptide I-37] | Other | <0.1 µM | ↓ | > 100 µM | > 100 µM | 1.11 µM | OCR MEC (HepG2): 143 µM; OCR ↑↓ (HepG2): ↓
11 | (D-Lys)(L-Dmt)(L-Lys)(L-Phe)-NH2 [Peptide I-6] | Other | 50.3 µM | ↑ | > 100 µM | > 100 µM | > 100 µM | 
12 | (D-Lys)(L-Dmt)(L-Orn)(L-Phe)-NH2 [Peptide I-7] | No effect |  |  | > 100 µM | > 100 µM | > 100 µM | 
13 | (D-Lys)(L-Leu)(L-Orn)(L-Leu)-NH2 [Peptide I-25] | No effect |  |  | > 100 µM | > 100 µM | > 100 µM | 
14 | (D-Lys)(L-Tyr)(L-Orn)(L-Phe)-NH2 [Peptide I-8] | Other | 79.7 µM | ↑ | > 100 µM | > 100 µM | > 100 µM | 
15 | (D-Orn)((L-Dmt)(L-Orn)(L-Phe)-NH2 [Peptide I-4] | No effect |  |  | > 100 µM | > 100 µM | > 100 µM | 
16 | (D-Orn)(L-Leu)(L-Orn)(L-Leu)-NH2 [Peptide I-26] | No effect |  |  | > 100 µM | > 100 µM | > 100 µM | 

Row | Molecule | Potential Mechanism (HepG2) | Reserve Capacity MEC (HepG2) | Reserve Capacity ↑↓ (HepG2) | AC50 (HepG2, read-out: ECAR AC50) | AC50 (HepG2, read-out: OCR AC50) | AC50 [1] | further results
17 | (D-Orn)(L-Phe)(L-Orn)(L-Phe)-NH2 [Peptide I-27] | No effect |  |  | > 100 µM | > 100 µM | > 100 µM | 
18 | (D-Orn)(L-Tyr)(L-Orn)(L-Phe)-NH2 [Peptide I-5] | Other |  |  | > 100 µM | > 100 µM |  | Reserve Capacity MEC (HepG2, listed as I-5 (1)): 15.8 µM; Reserve Capacity ↑↓ (HepG2, listed as I-5 (1)): ↑; AC50 (HepG2, listed as I-5 (1), read-out: Reserve Capacity AC50): > 100 µM; Reserve Capacity MEC (HepG2, listed as I-5 (2)): <0.1 µM; Reserve Capacity ↑↓ (HepG2, listed as I-5 (2)): ↓; AC50 (HepG2, listed as I-5 (2), read-out: Reserve Capacity AC50): 0.954 µM
19 | (D-Phe)(D-Lys)(D-Leu)(L-Arg)-NH2 [Peptide I-34] | Other | <0.1 µM | ↓ | > 100 µM | > 100 µM | 0.957 µM | 
20 | (D-Phe)(D-Orn)(D-Leu)(L-Arg)-NH2 [Peptide I-35] | Other | <0.1 µM | ↓ | > 100 µM | > 100 µM | 5.28 µM | 
21 | (D-Phe)(D-Orn)(D-Leu)(L-Orn)-NH2 [Peptide I-36] | Other | 0.139 µM | ↓ | > 100 µM | > 100 µM | 6.45 µM | 
22 | (D-Phe)(D-Orn)(D-Phe)(L-Orn)-NH2 [Peptide I-38] | No effect |  |  | > 100 µM | > 100 µM | > 100 µM | 
23 | (D-Phe)(D-Orn)(D-Tyr)(L-Arg)-NH2 [Peptide I-16] | Other | 84.5 µM | ↑ | > 100 µM | > 100 µM | > 100 µM | 
24 | (L-Leu)(L-Orn)(L-Leu)(D-Orn)-NH2 [Peptide I-32] | Other | 0.277 µM | ↓ | > 100 µM | > 100 µM | 9.32 µM | 
25 | (L-Phe)(L-Lys)(L-Leu)(D-Arg)-NH2 [Peptide I-28] | Other | <0.1 µM | ↓ | > 100 µM | > 100 µM | 1.28 µM | 
26 | (L-Phe)(L-Lys)(L-Phe)(D-Arg)-NH2 [Peptide I-29] | Other | 0.203 µM | ↓ | > 100 µM | > 100 µM | 4.17 µM | 
27 | (L-Phe)(L-Orn)(L-Dmt)(D-Arg)-NH2 [Peptide I-12] | No effect |  |  | > 100 µM | > 100 µM | > 100 µM | 
28 | (L-Phe)(L-Orn)(L-Dmt)(D-Orn)-NH2 [Peptide I-13] | Other |  |  | > 100 µM | > 100 µM |  | Reserve Capacity MEC (HepG2, listed as I-13 (1)): 13.4 µM; Reserve Capacity ↑↓ (HepG2, listed as I-13 (1)): ↑; AC50 (HepG2, listed as I-13 (1), read-out: Reserve Capacity AC50): 81.9 µM; Reserve Capacity MEC (HepG2, listed as I-13 (2)): 0.167 µM; Reserve Capacity ↑↓ (HepG2, listed as I-13 (2)): ↓; AC50 (HepG2, listed as I-13 (2), read-out: Reserve Capacity AC50): 4.72 µM
29 | (L-Phe)(L-Orn)(L-Leu)(D-Arg)-NH2 [Peptide I-30] | No effect |  |  | > 100 µM | > 100 µM | > 100 µM | 
30 | (L-Phe)(L-Orn)(L-Leu)(D-Orn)-NH2 [Peptide I-31] | No effect |  |  | > 100 µM | > 100 µM | > 100 µM | 
31 | (L-Phe)(L-Orn)(L-Phe)(D-Orn)-NH2 [Peptide I-33] | No effect |  |  | > 100 µM | > 100 µM | > 100 µM | 
